According to patent US20230022157A1 (Achillion Pharmaceuticals, Inc., priority 2018, published 2023):

These molecules were tested against T1, Human Factor D (Homo sapiens, UniProt P00746) (assay: Human Factor D Assay). Conditions: not given.
T1 construct: purified from human serum; purchased Complement Technology, Inc; host or cells: human serum (natural protein, not recombinant)
Format: biochemical
In short: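 Serum-purified human factor D (80 nM final) preincubated 5 min at room temperature with test compound in 50 mM Tris, 1M NaCl, pH 7.5. Z-L-Lys-SBzl substrate and DTNB then added, each at 100 μM final. IC50 from nonlinear regression of reaction rate against compound concentration.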

T1 sequence (P00746 26-253): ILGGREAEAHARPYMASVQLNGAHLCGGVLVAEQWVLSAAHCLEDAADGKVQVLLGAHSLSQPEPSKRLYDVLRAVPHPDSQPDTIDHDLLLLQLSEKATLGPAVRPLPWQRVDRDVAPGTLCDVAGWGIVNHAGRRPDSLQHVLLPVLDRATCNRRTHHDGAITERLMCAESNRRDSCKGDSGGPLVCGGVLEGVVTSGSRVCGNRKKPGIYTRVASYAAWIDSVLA

Compound | IC50 [nM]
CC(=O)c1nn(CC(=O)N2[C@H](C(=O)Nc3nc(Br)ccc3C)C[C@@]3(CNC(=O)COCCOCCNC(=O)COCCOCCNC(=O)CC[C@H](NC(=O)CCCCCCCCCCCCCCCCC(=O)O)C(=O)O)C[C@@H]23)c2ccc(OC(=O)NC3CC3)cc12 [Compound 15, (S)-1-((1R,3S,5R)-2-(2-(3-acetyl-5-((cyclopropylcarbamoyl)oxy)-1H-indazol-1-yl)acetyl)-3-((6-bromo-3-methylpyridin-2-yl)carbamoyl)-2-azabicyclo[3.1.0]hexan-5-yl)-24-carboxy-3,12,21,26-tetraoxo-5,8,14,17-tetraoxa-2,11,20,25-tetraazatritetracontan-43-oic acid] | < 1000

Same assay, conditions: Human Factor D 80 nM, substrate Z-L-Lys-SBzl, assay of Example 3; read-out: IC50 (Stars)

Compound | IC50 [nM]
CC(=O)c1nn(CC(=O)N2[C@H](C(=O)Nc3nc(Br)ccc3C)C[C@@]3(CO)C[C@@H]23)c2c(C)cc(-c3cnc(CO)nc3)cc12 [Compound 31] | < 1000
CC(=O)c1nn(CC(=O)N2[C@H](C(=O)Nc3nc(Br)ccc3C)C[C@@]3(C)C[C@@H]23)c2c(C)cc(-c3cnc(CO)nc3)cc12 [Compound 27, (1R,3S,5R)-2-(2-(3-Acetyl-5-(2-(hydroxymethyl)pyrimidin-5-yl)-7-methyl-1H-indazol-1-yl)acetyl)-N-(6-bromo-3-methylpyridin-2-yl)-5-methyl-2-azabicyclo[3.1.0]hexane-3-carboxamide] | < 1000
CC(=O)c1nn(CC(=O)N2C[C@H](F)C[C@H]2C(=O)Nc2cccc(Br)n2)c2ccc(-c3ccc(C)nc3)cc12 [Compound 33] | < 1000
CC[C@@H](C)NC(=O)[C@@H]1C[C@@]2(C)C[C@H]2N1C(=O)Cn1nc(C(C)=O)c2cc(-c3cnc(C)nc3)ccc21 [Compound 11, (1R,3S,5R)-2-(2-(3-Acetyl-5-(2-methylpyrimidin-5-yl)-1H-indazol-1-yl)acetyl)-N—((R)-sec-butyl)-5-methyl-2-azabicyclo[3.1.0]hexane-3-carboxamide] | < 1000
CC(=O)c1nn(CC(=O)N2[C@H](C(=O)Nc3cccc(C(F)(F)F)c3F)C[C@@]3(C)C[C@@H]23)c2ccc(-c3cnc(C)nc3)cc12 [Compound 24, (1R,3S,5R)-2-(2-(3-Acetyl-5-(2-methylpyrimidin-5-yl)-1H-indazol-1-yl)acetyl)-N-(2-fluoro-3-(trifluoromethyl)phenyl)-5-methyl-2-azabicyclo[3.1.0]hexane-3-carboxamide] | < 1000
CC(=O)c1nn(CC(=O)N2C[C@H](F)C[C@H]2C(=S)Nc2cccc(Br)n2)c2ccc(-c3cnc(C)nc3)cc12 [Compound 36, (2S,4R)-1-(2-(3-Acetyl-5-(2-methylpyrimidin-5-yl)-1H-indazol-1-yl)acetyl)-N-(6-bromopyridin-2-yl)-4-fluoropyrrolidine-2-carbothioamide] | < 1000

Same assay, conditions: Human Factor D 80 nM, substrate Z-L-Lys-SBzl; Table 2; read-out: IC50 (Stars)

Compound | IC50 [nM]
CC(=O)c1nn(CC(=O)N2[C@H](C(=O)Nc3nc(Br)ccc3Cl)C[C@@]3(C)C[C@@H]23)c2c(C)cc(-c3cnc(CO)nc3)cc12 [Compound 80, (1R,3S,5R)-2-(2-(3-acetyl-5-(2-(hydroxymethyl)pyrimidin-5-yl)-7-methyl-1H-indazol-1-yl)acetyl)-N-(6-bromo-3-chloropyridin-2-yl)-5-methyl-2-azabicyclo[3.1.0]hexane-3-carboxamide] | < 1000
Cc1ncc(-c2cc3c(C(N)=O)nn(CC(=O)N4[C@H](C(=O)Nc5cncc(Br)n5)C[C@@]5(C)C[C@@H]45)c3c(C)n2)cn1 [Compound 92, 1-{2-[3-(6-Bromo-pyrazin-2-ylcarbamoyl)-5-methyl-2-aza-bicyclo[3.1.0]hex-2-yl]-2-oxo-ethyl}-7-methyl-5-(2-methyl-pyrimidin-5-yl)-1H-pyrazolo[3,4-c]pyridine-3-carboxylic acid amide] | < 1000
CCC(Cc1ccccc1)NC(=O)[C@@H]1C[C@@]2(C)C[C@H]2N1C(=O)Cn1nc(C(C)=O)c2cc(-c3cnc(C)nc3)cc(C)c21 (stereo partly drawn) [Compound 173, (1R,3S,5R)-2-{2-[3-acetyl-7-methyl-5-(2-methylpyrimidin-5-yl)indazol-1-yl]acetyl}-5-methyl-N-(1-phenylbutan-2-yl)-2-azabicyclo[3.1.0]hexane-3-carboxamide] | < 1000
CC(=O)c1nn(CC(=O)N2[C@H](C(=O)Nc3nc(Br)ccc3C)C[C@@]3(C)C[C@@H]23)c2ccc(-c3cnc(C(C)O)nc3)cc12 (stereo partly drawn) [Compound 126, (1R,3S,5R)-2-(2-(3-acetyl-5-(2-(1-hydroxyethyl)pyrimidin-5-yl)-1H-indazol-1-yl)acetyl)-N-(6-bromo-3-methylpyridin-2-yl)-5-methyl-2-azabicyclo[3.1.0]hexane-3-carboxamide] | < 1000
CC(=O)c1nn(CC(=O)N2[C@H](C(=O)Nc3nc(Br)ccc3C)C[C@@]3(C)C[C@@H]23)c2ccc(-c3cnc(C(=O)O)nc3)cc12 [Compound 47, 5-(3-acetyl-1-(2-((1R,3S,5R)-3-((6-bromo-3-methylpyridin-2-yl)carbamoyl)-5-methyl-2-azabicyclo[3.1.0]hexan-2-yl)-2-oxoethyl)-1H-indazol-5-yl)pyrimidine-2-carboxylic acid] | < 1000
COC(=O)C1(c2cncc(-c3ccc4c(c3)c(C(C)=O)nn4CC(=O)N3[C@H](C(=O)Nc4nc(Br)ccc4C)C[C@@]4(C)C[C@@H]34)c2)CC1 [Compound 97, Methyl 1-(5-(3-acetyl-1-(2-((1R,3S,5R)-3-((6-bromo-3-methylpyridin-2-yl)carbamoyl)-5-methyl-2-azabicyclo[3.1.0]hexan-2-yl)-2-oxoethyl)-1H-indazol-5-yl)pyridin-3-yl)cyclopropane-1-carboxylate] | < 1000
CC(=O)c1nn(CC(=O)N2[C@H](C(=O)NCCC3CC3)C[C@@]3(C)C[C@@H]23)c2c(C)cc(-c3cnc(C)nc3)cc12 [Compound 105, (1R,3S,5R)-2-{2-[3-acetyl-7-methyl-5-(2-methylpyrimidin-5-yl)indazol-1-yl]acetyl}-N-(2-cyclopropylethyl)-5-methyl-2-azabicyclo[3.1.0]hexane-3-carboxamide] | < 1000
CC(=O)c1nn(CC(=O)N2[C@H](C(=O)NC(C)Cc3ccccc3F)C[C@@]3(C)C[C@@H]23)c2c(C)cc(-c3cnc(C)nc3)cc12 (stereo partly drawn) [Compound 186, (1R,3S,5R)-2-{2-[3-acetyl-7-methyl-5-(2-methylpyrimidin-5-yl)indazol-1-yl]acetyl}-N-[1-(2-fluorophenyl)propan-2-yl]-5-methyl-2-azabicyclo[3.1.0]hexane-3-carboxamide] | < 1000
CC(=O)c1nn(CC(=O)N2[C@H](C(=O)N[C@@H](c3ccccc3)C(F)(F)F)C[C@@]3(C)C[C@@H]23)c2c(C)cc(-c3cnc(C)nc3)cc12 [Compound 85, (1R,3S,5R)-2-{2-[3-acetyl-7-methyl-5-(2-methylpyrimidin-5-yl)indazol-1-yl]acetyl}-5-methyl-N-[(1S)-2,2,2-trifluoro-1-phenylethyl]-2-azabicyclo[3.1.0]hexane-3-carboxamide] | < 1000
CC(=O)c1cn(CC(=O)N2[C@H](C(=O)Nc3cc(F)cc(Br)n3)C[C@@]3(C)C[C@@H]23)c2c(C)cc(-c3cnc(C)nc3)cc12 [Compound 192, (1R,3S,5R)-2-(2-(3-acetyl-7-methyl-5-(2-methylpyrimidin-5-yl)-1H-indol-1-yl)acetyl)-N-(6-bromo-4-fluoropyridin-2-yl)-5-methyl-2-azabicyclo[3.1.0]hexane-3-carboxamide] | < 1000
CC(=O)c1nn(CC(=O)N2[C@H](C(=O)Nc3nc(Br)c(F)cc3C)C[C@@]3(C)C[C@@H]23)c2c(C)cc(-c3cnc(CO)nc3)cc12 [Compound 49, (1R,3S,5R)-2-(2-(3-acetyl-5-(2-(hydroxymethyl)pyrimidin-5-yl)-7-methyl-1H-indazol-1-yl)acetyl)-N-(6-bromo-5-fluoro-3-methylpyridin-2-yl)-5-methyl-2-azabicyclo[3.1.0]hexane-3-carboxamide] | < 1000
CC(=O)c1nn(CC(=O)N2[C@H](C(=O)N[C@@H](C)c3ccc4c(c3)CCCC4)C[C@@]3(C)C[C@@H]23)c2c(C)cc(-c3cnc(C)nc3)cc12 [Compound 151, (1R,3S,5R)-2-{2-[3-acetyl-7-methyl-5-(2-methylpyrimidin-5-yl)indazol-1-yl]acetyl}-5-methyl-N-[(1S)-1-(5,6,7,8-tetrahydronaphthalen-2-yl)ethyl]-2-azabicyclo[3.1.0]hexane-3-carboxamide] | 1000 to 10000
CC(=O)c1nn(CC(=O)N2[C@H](C(=O)Nc3nc(OC(F)(F)F)ccc3C)C[C@@]3(C)C[C@@H]23)c2c(C)cc(-c3cnc(CO)nc3)cc12 [Compound 55, (1R,3S,5R)-2-(2-(3-acetyl-5-(2-(hydroxymethyl)pyrimidin-5-yl)-7-methyl-1H-indazol-1-yl)acetyl)-5-methyl-N-(3-methyl-6-(trifluoromethoxy)pyridin-2-yl)-2-azabicyclo[3.1.0]hexane-3-carboxamide] | < 1000
COCCOC[C@@]12C[C@@H](C(=O)Nc3nc(Br)ccc3C)N(C(=O)Cn3nc(C(C)=O)c4cc(-c5cnc(C)nc5)cc(C)c43)[C@@H]1C2 [Compound 107, (1R,3S,5S)-2-(2-(3-acetyl-7-methyl-5-(2-methylpyrimidin-5-yl)-1H-indazol-1-yl)acetyl)-N-(6-bromo-3-methylpyridin-2-yl)-5-((2-methoxyethoxy)methyl)-2-azabicyclo[3.1.0]hexane-3-carboxamide] | < 1000
CC(=O)c1nn(CC(=O)N2[C@H](C(=O)Nc3nc(Br)ccc3C)C[C@@]3(C)C[C@@H]23)c2ccc(-c3cncc(S(N)(=O)=O)c3)cc12 [Compound 71, (1R,3S,5R)-2-(2-(3-Acetyl-5-(5-sulfamoylpyridin-3-yl)-1H-indazol-1-yl)acetyl)-N-(6-bromo-3-methylpyridin-2-yl)-5-methyl-2-azabicyclo[3.1.0]hexane-3-carboxamide] | < 1000
